Earlier results in US9603852B2, “Treatment of obesity and pulmonary arterial hypertension” (ALBERT EINSTEIN COLLEGE OF MEDICINE, INC., priority 2013, dated 2017).
Where two headings read alike, the source gives them in different places.

Target: T1, rat PGT (Rattus norvegicus, UniProt Q00910)
T1 construct: expressed in transfected cells
Settings: cited from earlier work; for Inh (% of Ctl) 2.5 μM: 2.5 μM compound; for Inh (% of Ctl) 0.5 μM: 0.5 μM compound; for Inh (% of Ctl) 0.1 μM: 0.1 μM compound; for Inh (% of Ctl) 0.01 μM: 0.01 μM compound; for Inh (% of Ctl) 0.01 μM / Inh (% of Ctl) 0.05 μM: second part of Table 1; for Inh (% of Ctl) 0.05 μM: 0.05 μM compound

[1] = second part of Table 1 (Cpd 130-151)

## CCCCCCCC(=O)c1ccc(Nc2nc(NCCOCCOCCNC(=O)c3ccccc3)nc(Nc3ccc(O)cc3)n2)cc1 [Compound 76]
  Inh (% of Ctl) 2.5 μM: 39.9 % of Ctl

## O=C(NCCOCCOCCNc1nc(Nc2ccc(O)cc2)nc(Oc2ccc(C(=O)NCc3ccccc3)cc2)n1)c1ccccc1 [Compound 83]
  Inh (% of Ctl) 0.5 μM: 4.1 % of Ctl
  Inh (% of Ctl) 2.5 μM: 10.4 % of Ctl
5 μM compound
  Inh (% of Ctl) 5 μM: 42.0 % of Ctl
[3H]PGE2 uptake, MDCK cells with rat PGT
  IC50: 609 nM

## O=C(NCCOCCOCCNc1nc(Nc2ccc(O)cc2)nc(Nc2ccc(C(=O)NCc3ccccc3)cc2)n1)c1ccccc1 [Compound 116]
First part of Table 1
  Inh (% of Ctl) 0.1 μM: 36.4 % of Ctl
0.5 µM
  Inh (% of Ctl) 0.5 μM: 59.4 % of Ctl

## O=C(NCCOCCOCCNc1nc(Nc2ccc(O)cc2)nc(Nc2ccc(C(=O)NCc3cc(F)cc(F)c3)cc2)n1)c1ccccc1 [Compound 130]
  Inh (% of Ctl) 0.01 μM: 41.6 % of Ctl
  Inh (% of Ctl) 0.05 μM: 73.2 % of Ctl
[1]
  Inh (% of Ctl) 0.1 μM: 81.7 % of Ctl

## O=C(NCCOCCOCCNc1nc(Nc2ccc(O)cc2)nc(Nc2ccc(C(=O)NCc3ccc(F)cc3F)cc2)n1)c1ccccc1 [Compound 131]
  Inh (% of Ctl) 0.01 μM: 22.3 % of Ctl
  Inh (% of Ctl) 0.05 μM: 47.0 % of Ctl
[1]
  Inh (% of Ctl) 0.1 μM: 74.3 % of Ctl

## N[C@@H](C(=O)NCCOCCNc1nc(Nc2ccc(O)cc2)nc(Nc2ccc(C(=O)NCc3ccccc3)cc2)n1)c1ccccc1 [Compound 132]
  Inh (% of Ctl) 0.01 μM: 15.0 % of Ctl
  Inh (% of Ctl) 0.05 μM: 22.1 % of Ctl
[1]
  Inh (% of Ctl) 0.1 μM: 32.4 % of Ctl

## N[C@H](Cc1ccccc1)C(=O)NCCOCCNc1nc(Nc2ccc(O)cc2)nc(Nc2ccc(C(=O)NCc3ccccc3)cc2)n1 [Compound 133]
  Inh (% of Ctl) 0.01 μM: 4.3 % of Ctl
  Inh (% of Ctl) 0.05 μM: 12.6 % of Ctl
[1]
  Inh (% of Ctl) 0.1 μM: 19.4 % of Ctl

## O=C(NCc1ccccc1)c1ccc(Nc2nc(NCCOCCNC(=O)c3ccccc3C(F)(F)F)nc(Nc3ccc(O)cc3)n2)cc1 [Compound 134]
  Inh (% of Ctl) 0.01 μM: 14.0 % of Ctl
  Inh (% of Ctl) 0.05 μM: 27.7 % of Ctl
[1]
  Inh (% of Ctl) 0.1 μM: 46.7 % of Ctl

## O=C(NCCOCCNc1nc(Nc2ccc(O)cc2)nc(Nc2ccc(C(=O)NCc3ccccc3)cc2)n1)c1ccncc1 [Compound 135]
  Inh (% of Ctl) 0.01 μM: 13.2 % of Ctl
  Inh (% of Ctl) 0.05 μM: 28.4 % of Ctl

## O=C(NCCOCCNc1nc(Nc2ccc(O)cc2)nc(Nc2ccc(C(=O)NCc3ccccc3)cc2)n1)c1ccc(F)cc1 [Compound 136]
  Inh (% of Ctl) 0.01 μM: 33.3 % of Ctl
  Inh (% of Ctl) 0.05 μM: 64.1 % of Ctl
[1]
  Inh (% of Ctl) 0.1 μM: 77.9 % of Ctl

## COc1ccc(C(=O)NCCOCCNc2nc(Nc3ccc(O)cc3)nc(Nc3ccc(C(=O)NCc4ccccc4)cc3)n2)cc1 [Compound 137]
  Inh (% of Ctl) 0.01 μM: 42.0 % of Ctl
  Inh (% of Ctl) 0.05 μM: 64.9 % of Ctl
[1]
  Inh (% of Ctl) 0.1 μM: 75.6 % of Ctl

## O=C(NCCOCCNc1nc(Nc2ccc(O)cc2)nc(Nc2ccc(C(=O)NCc3ccccc3)cc2)n1)Nc1ccccc1 [Compound 139]
  Inh (% of Ctl) 0.01 μM: 16.3 % of Ctl
  Inh (% of Ctl) 0.05 μM: 30.7 % of Ctl
[1]
  Inh (% of Ctl) 0.1 μM: 39.0 % of Ctl

## CC(=O)NCCOCCNc1nc(Nc2ccc(O)cc2)nc(Nc2ccc(C(=O)NCc3ccccc3)cc2)n1 [Compound 140]
  Inh (% of Ctl) 0.01 μM: 11.5 % of Ctl
  Inh (% of Ctl) 0.05 μM: 4.5 % of Ctl
[1]
  Inh (% of Ctl) 0.1 μM: 10.9 % of Ctl

## O=C(NCc1ccccc1)c1ccc(Nc2nc(NCCOCCNCc3ccccc3)nc(Nc3ccc(O)cc3)n2)cc1 [Compound 141]
  Inh (% of Ctl) 0.01 μM: 12.7 % of Ctl
  Inh (% of Ctl) 0.05 μM: 22.0 % of Ctl
[1]
  Inh (% of Ctl) 0.1 μM: 43.5 % of Ctl

## O=C(NCCOCCOCCNc1nc(Nc2ccc(C(=O)NCc3ccc(F)cc3)cc2)nc(Nc2ccc3[nH]cnc3c2)n1)c1ccccc1 [Compound 142]
  Inh (% of Ctl) 0.01 μM: 8.4 % of Ctl
  Inh (% of Ctl) 0.05 μM: 20.1 % of Ctl
[1]
  Inh (% of Ctl) 0.1 μM: 39.2 % of Ctl

## O=C(NCCOCCOCCNc1nc(Nc2ccc(C(=O)NCc3ccc(F)cc3)cc2)nc(Nc2ccc(O)c(F)c2)n1)c1ccccc1 [Compound 143]
  Inh (% of Ctl) 0.01 μM: 33.7 % of Ctl
  Inh (% of Ctl) 0.05 μM: 57.8 % of Ctl
[1]
  Inh (% of Ctl) 0.1 μM: 69.5 % of Ctl

## COC(=O)c1cc(Nc2nc(NCCOCCOCCNC(=O)c3ccccc3)nc(Nc3ccc(C(=O)NCc4ccc(F)cc4)cc3)n2)ccc1O [Compound 144]
  Inh (% of Ctl) 0.01 μM: 3.4 % of Ctl
  Inh (% of Ctl) 0.05 μM: 5.8 % of Ctl
[1]
  Inh (% of Ctl) 0.1 μM: 10.8 % of Ctl

## O=C(NCc1ccc(F)cc1)c1ccc(Nc2nc(Nc3ccc(O)cc3)nc(Nc3ccc(O)cc3)n2)cc1 [Compound 145]
  Inh (% of Ctl) 0.01 μM: 7.1 % of Ctl
  Inh (% of Ctl) 0.05 μM: 3.1 % of Ctl
[1]
  Inh (% of Ctl) 0.1 μM: 6.9 % of Ctl

## O=C(NCCOCCNc1nc(Nc2ccc(O)cc2)nc(Nc2ccc(C(=O)NCc3ccc(F)cc3)cc2)n1)c1ccccc1 [Compound 147]
  Inh (% of Ctl) 0.01 μM: 44.5 % of Ctl
  Inh (% of Ctl) 0.05 μM: 70.2 % of Ctl
[1]
  Inh (% of Ctl) 0.1 μM: 79.5 % of Ctl

## O=C(NCc1ccc(F)cc1)c1ccc(Nc2nc(Nc3ccc(O)cc3)nc(Nc3ccc(C(=O)NCc4ccc(F)cc4)cc3)n2)cc1 [Compound 148]
  Inh (% of Ctl) 0.01 μM: 8.4 % of Ctl
  Inh (% of Ctl) 0.05 μM: 12.9 % of Ctl
[1]
  Inh (% of Ctl) 0.1 μM: 20.7 % of Ctl

## O=C(NCc1ccc(F)cc1)c1ccc(Nc2nc(Nc3ccc(O)cc3)nc(Nc3ccc(CNCc4ccccc4)cc3)n2)cc1 [Compound 149]
  Inh (% of Ctl) 0.01 μM: 3.8 % of Ctl
  Inh (% of Ctl) 0.05 μM: 9.1 % of Ctl
[1]
  Inh (% of Ctl) 0.1 μM: 17.6 % of Ctl

## O=C(O)c1cccc(Nc2nc(NCCOCCOCCNC(=O)c3ccccc3)nc(Nc3ccc(C(=O)NCc4ccc(F)cc4)cc3)n2)c1 [Compound 150]
  Inh (% of Ctl) 0.01 μM: 4.2 % of Ctl
  Inh (% of Ctl) 0.05 μM: 14.3 % of Ctl
[1]
  Inh (% of Ctl) 0.1 μM: 23.9 % of Ctl

## O=C(NCCOCCOCCNc1nc(NCCOCCOCCNC(=O)c2ccccc2)nc(Nc2ccc(O)cc2)n1)c1ccccc1 [Compound 151]
  Inh (% of Ctl) 0.05 μM: 0.7 % of Ctl
[1]
  Inh (% of Ctl) 0.1 μM: 8.4 % of Ctl
